Experimental data as given in US10202650B2, “Methods for monitoring ELOVL2, KLF14 and PENK gene expression following treatment with vitamin C” (The Regents of the University of California, priority 2016, dated 2019).

Tests used:
Type in all cases: cell-based, human
WI38 cells at PD55 [1] = assay: WI38 PD55 confluency / cell proliferation, Example 6
Experimental: (§1) WI38 cells at PD55 (55th population doubling) were incubated with different concentrations of vitamin C (Vc), L-dehydro ascorbic acid (DHAA or DHA), or L-ascorbic acid 2-phosphate (VcP). DHAA (or DHA) is an oxidized form of vitamin C. L-ascorbic acid 2-phosphate (VcP) is a vitamin C derivative. Three concentrations were used for each tested compound and the concentrations included 0.3 mM (equivalent to […]), 1.2 mM, or 1.8 mM.

WI38 cells at PD55 [2] = assay: Cell senescence of WI38 PD55 by beta gal staining assay
Experimental: as §1

ELOVL2 [3] = assay: ELOVL2 expression in aging WI38 cells (PD55)
Experimental: as §1
The expression of ELOVL2 is also observed to be increased with a low concentration of vitamin C and all concentrations of L-ascorbic acid 2-phosphate (VcP) but not with DHAA (FIG. 27).

ELOVL2 [4] = assay: Expression of age-related marker (ARM, e.g. ELOVL2) in WI38 fibroblasts, Example 1
Experimental: (§2) The proliferation effects of vitamin C on WI38 fibroblasts were tested. This cell line is useful as an aging model since it is a mortal human cell line that follows the Hayflick limit, in that it undergoes a certain number of cell divisions before stopping. The senescence level in WI38 increased as the cell line divided. […] A membrane-soluble derivative of vitamin C, 6-O-Palmitoyl-L-ascorbic acid (PalmAA), which has an additional fatty acid that allows it to pass through the cell membrane, was also tested. The oxidized derivative of vitamin C, dehydroascorbic acid (DHAA), as Vitamin C is actively converted to DHAA in cell culture media, was tested as well. Insulin was also added to this experiment to upregulate Glut-1 transporter, through which DHAA enters the cell.
A) Cell images of 12-well plate treated with low concentration vitamin C at Day 0, 4 and 5 for PD46. B) Confluency plot calculated through ImageJ of PD46, n=2. […] F) Confluency plot calculated through ImageJ of PD48, n=2. […]
FIG. 2 illustrates phenotypic and genotypic effects of vitamin C treatment were analyzed on younger WI38 PD42 and older WI38 PD58 fibroblasts. […] B) Confluency plot calculated through ImageJ of PD42, n=2. […] F) Confluency plot calculated through ImageJ of PD58, n=2. […]
A) Cell images of 12-well at Day 0 and Day 8 of treatment for PD55. B) Confluency plot calculated through ImageJ for PD55, n=2. […]

WI38 fibroblasts = assay: Proliferation (confluency) of WI38 fibroblasts, Example 1; conditions: for cell proliferation: concentration not stated
Experimental: as §2
A) Cell images of 12-well plate treated with low concentration vitamin C at Day 0, 4 and 5 for PD46. B) Confluency plot calculated through ImageJ of PD46, n=2. C) and D) Expression graphs for ARM (e.g., ELOVL2) and SLC2A1 for PD46, n=3. E) Cell images of 12-well treated with high concentration vitamin C at Day 0, 4 and 5 for PD48. F) Confluency plot calculated through ImageJ of PD48, n=2. G) and […]) Expression graphs for ARM and SLC2A1 for PD48, n=3.
FIG. 2 illustrates phenotypic and genotypic effects of vitamin C treatment were analyzed on younger WI38 PD42 and older WI38 PD58 fibroblasts. A) Cell images of 12-well at Day 0, 1 and 2 of treatment for PD42. B) Confluency plot calculated through ImageJ of PD42, n=2. C) and D) Expression graphs for ARM (e.g., ELOVL2) and SLC2A1 for PD42, n=3. E) Cell images of 12-well at Day 0, 5 and 7 of treatment for PD58. F) Confluency plot calculated through ImageJ of PD58, n=2. G) and H) Expression graphs for ARM (e.g., ELOVL2) and SLC2A1 for […], n=3. I) Cell images of senescence and DAPI staining of PD45.5 fibroblasts. J) Graph of percentage senescence for younger PD32 fibroblast and older PD45.5 fibroblast. n=3.
A) Cell images of 12-well at Day 0 and Day 8 of treatment for PD55. B) Confluency plot calculated through ImageJ for PD55, n=2. C) and D) Expression graph for ARM (e.g., ELOVL2) and SLC2A1 for PD55, n=3.
A) Diagram of postulated pathway for interconversion of DHAA to vitamin C and their effect on fibroblast cells. B) Cell images of 12-well at Day 10 of treatment for PD54. C) Confluency plot calculated through ImageJ of PD54, n=2. D and E) Expression graphs for ARM (e.g., ELOVL2) and SLC2A1 for PD54, n=3. F) Graph of percentage senescence for younger PD32 fibroblast and older PD45.5 fibroblast. n=3. G) Fluorescent ROS assay showing fluorescent ROS relative to total fibroblasts in PD48 fibroblasts.

aged fibroblast = assay: Reversal of biological age / reprogramming of aged fibroblast into iPSCs; conditions: low concentration
Experimental: As used herein, the terms “biological age (bioage),” “chemical age,” “methylomic age,” and “molecular age” are equivalent or synonymous. The biological age is determined using a set of age-associated markers (e.g., epigenetic markers) of a subject or an organism. In the current disclosure, the biological age is determined from an analysis of the modification status of specific CpG dinucleotide and, in particular, e.g., the methylation status at the C-5 position of cytosine.

[5] = all three concentrations (0.3 mM, 1.2 mM, 1.8 mM)
[6] = all concentrations (0.3 mM, 1.2 mM, 1.8 mM)

Q: Which results are given for `O=C1O[C@H]([C@@H](O)CO)C(O)=C1OP(=O)(O)O` [L-ascorbic acid 2-phosphate]?
A: cell proliferation (WI38 cells at PD55 [1]; [5]): cell proliferation is observed; protection against cell senescence (WI38 cells at PD55 [2]; [6]): protective against cell senescence; expression of ELOVL2 (ELOVL2 [3]; [6]): increased

Q: With `CCCCCCCCCCCCCCCC(=O)OC[C@H](O)[C@H]1OC(=O)C(O)=C1O` [6-O-Palmitoyl L-ascorbic acid, 6-O-Palmitoyl-L-ascorbic acid] as the molecule, how does the “gene expression change in the age related marker” value (ELOVL2 [4]) read?
A: Its value is “caused no gene expression change in the age related marker”.

Q: And the cell proliferation (WI38 fibroblasts)?
A: The cell proliferation was “induced minimal proliferation”.

Q: What does the source list for `O=C1O[C@H]([C@@H](O)CO)C(O)=C1O` [vitamin C, L-ascorbic acid]?
A: cell proliferation rate (WI38 cells at PD55 [1]; higher concentration, 1.2 mM or 1.8 mM, relative to 0.3 mM): slower cell proliferation rate relative to the concentration at 0.3 mM; cell proliferation (WI38 cells at PD55 [1]; low concentration, 0.3 mM): increase cell proliferation; protection against cell senescence (WI38 cells at PD55 [2]; low concentration): protective against cell senescence; expression of ELOVL2 (ELOVL2 [3]; low concentration): increased; proliferative effect, older vs younger fibroblast cells (WI38 fibroblasts; 50 μg/mL): more pronounced on older fibroblast cells compared to younger fibroblast cells; fibroblast cell growth / cell death (WI38 fibroblasts; higher concentrations, 200 μg/mL to 500 μg/mL): slowed or inhibited fibroblast cell growth while causing cell death; fibroblast proliferation (WI38 fibroblasts; low concentrations, 50 μg/mL to 100 μg/mL): induced fibroblast proliferation; biological age (aged fibroblast): reversed; reprogramming of aged fibroblast into iPSCs (aged fibroblast): reverted into iPSCs from aged fibroblast

Q: With `O=C1O[C@H]([C@@H](O)CO)C(=O)C1=O` [DHAA, dehydroascorbic acid] as the molecule, how does the cell proliferation (WI38 cells at PD55 [1]; [5]) read?
A: The cell proliferation was “increased cell proliferation is not observed”.

Q: And the “protection against cell senescence” value (WI38 cells at PD55 [2]; [6])?
A: Its value is “did not exert a protective effect against cell senescence”.

Q: What about the “expression of ELOVL2” value (ELOVL2 [3]; [6]) of the same molecule?
A: The value was “not”.

Q: And the cell proliferation (WI38 fibroblasts)?
A: Its cell proliferation is “induced lower cell proliferation compared to an equal concentration of vitamin C”.
